Data as given in US20250041408A1, “SMALL MOLECULE IMMUNOPOTENTIATOR CONJUGATES OF NFKB ACTIVATORS AS ADJUVANTS WITH ENHANCED EFFICACY AND REDUCED TOXICITY” (THE UNIVERSITY OF CHICAGO, priority 2021, published 2025).
One block for each compound: values may come before it.

Experiments:
[1] = Systemic cytokines in CT26 tumor model after intratumoral injection; format: in vivo, Balb/c mice; conditions: 2 h after intratumoral injection
Description: FIGS. 17A-C (A) Outline of in vivo tumor model experiment. (B) Systemic IL-6 levels measured in the serum 2 h after intertumoral injection of compounds. (C) Systemic TNF-α levels measured in the serum 2 h after intertumoral injection of compounds.
0.2×10^6 CT-26 cells were injected subcutaneously into the flank of 6-week-old Balb/c mice (n=10 per group) in 100 μL of PBS. The tumor size was monitored on alternating days. Tumor volumes were measured using the equation V=1/2×L×W×W. When the tumors reached a size of approximately 75 mm3 (day 11), treatment was started. Various formulations (20 nmols of each agonist or PBS) were injected peritumorally every 4 days […]. Mice were euthanized when the tumors reached 20 mm in any linear dimension. Five mice for each group were used for blood analysis. Blood was collected two days post the first injection for hematological toxicity analysis and two hours post the second injection for systemic cytokine analysis.
After 11 days, the tumors were established and intratumoral injections were administered with the SMIP adjuvant and adjuvant dimers. At 2 h and 24 h after these injections, serum and blood were collected to examine systemic cytokines in the serum and perform a hematological analysis on the blood to better quantify adjuvant toxicity. Similar to the OVA vaccination model, the dimer adjuvants induced baseline levels of IL-6 and TNF-α as measured in the serum.

[2] = with CPG in vaccine formulations; vaccine protective effects maintained; cited from earlier work
BMDMs [3] = test: Flow cytometry of costimulatory molecules CD40 and CD86 on BMDMs; format: cell-based, C57Bl/6 mice; conditions: 18 h at 37° C
Description: FIGS. 2A-B show immune activation as measured by costimulatory molecules CD40 (FIG. 2A) and CD86 (FIG. 2B) on BMDMs. Cells were incubated with each compound for 18 h at 37° C. Error bars represent SD. Samples were run in triplicate. […] Each experiment was repeated thrice with similar results.
Flow Cytometry for Cell Surface Marker Upregulation: BMDCs were plated in untreated 12-well plates at 1×10^6 cells/mL and incubated with agonists in culture media for 18 h at 37° C. with 5% CO2. The cells were released from the plate by pipetting vigorously and centrifuged at 2500 RPM at 4° C. for 10 min. The cell pellet was resuspended in cold FACS buffer (PBS, 10% FBS, and 0.1% sodium azide) buffer (300 μL) and incubated with CD16/32 FcR blocking antibodies (1.0 μg/1×10^6 cells) on ice for 15 min. The cell suspension was pelleted, and the supernatant was removed. Next, the cell pellet was resuspended in cold FACS buffer (100 μL) and stained for CD86 and CD40 in the dark for 30 min. The samples were then washed twice with 300 μL FACS buffer. The pelleted cells were resuspended in cold FACS buffer (200 μL) and kept on ice until being loaded onto the flow cytometer for analysis.

cells from the dLNs = test: Cytokines from draining lymph node cells re-stimulated with OVA (CBA); format: in vivo, C57Bl/6 mice; conditions: re-stimulated with OVA for 48 hours
BMDMs [4] = test: TNF-α in supernatant of BMDMs by ELISA; format: cell-based, C57Bl/6 mice; conditions: treated BMDMs; compared with pTLR7/8 and mTLR7/8
OVA = test: Serum anti-OVA IgG titers after OVA immunization (ELISA); format: in vivo, C57Bl/6 mice; conditions: immunized days 0 and 14; ELISA at 3 weeks
[5] = tested on: NF-κB in RAW-Blue 264.7 macrophage cells; test: RAW-Blue 264.7 macrophage NF-κB assay (polymeric immunomodulator); format: cell-based; conditions: incubated 18 h at 37° C; QUANTIBlue absorbance 620 nm
Description: Cells were incubated with each compound for 18 h at 37° C. Supernatant was removed and incubated with QUANTIBlue for 1 h, and the absorbance at 620 nm was measured. Error bars represent standard deviation (SD). Samples were run in triplicate.
RAW264.7 Macrophage (RAW-Blue) NF-κB assay: RAW-Blue cells (passage 5-15) were plated in a 96 well plate at a density of 100,000 cells/well in 180 μL DMEM containing 10% heat-inactivated FBS (HI-FBS) and selective antibiotics. The cells were treated with agonists for […] at 37° C. and 5% CO2. NF-κB activity was measured by a QUANTI-Blue (InvivoGen) assay and the absorbance was measured at 620 nm using a Multiskan FC plate reader (Thermo Scientific).

- systemic IL-6 levels in serum [1]: high levels
- systemic TNF-α levels in serum [1]: high levels
Structure (SMILES): CCOCc1nc2c(N)nc3ccccc3c2n1CC(C)(C)O [Compound R848, resiquimod]

- systemic IL-6 levels in serum [1]: comparable
- systemic TNF-α levels in serum [1]: comparable
Structure (SMILES): CCCCCCCCCCCCCCCCCC(=O)NCCCCOn1c(CCCC)nc2c(N)nc3ccccc3c21 [Compound 3M-052]

Structure (SMILES): C=CCc1ccc(O)c(-c2ccc(O)c(CC=C)c2)c1 [honokiol]
- pro-inflammatory systemic IL-6 and TNF-α levels [2]: reduce

Structure (SMILES): CCCCc1nc2c(N)nc3ccccc3c2n1Cc1ccc(CNC(=O)CCCCCNC(=O)CCC(NC(=O)CNC(=O)C(CCC(=O)NCCCCCC(=O)NCc2ccc(Cn3c(CCCC)nc4c(N)nc5ccccc5c43)cc2)NC(=O)CNC(=O)C(CCC(=O)NCCCCCC(=O)NCc2ccc(Cn3c(CCCC)nc4c(N)nc5ccccc5c43)cc2)NC(=O)CNC(=O)C(CCC(=O)NCCCCCC(=O)NCc2ccc(Cn3c(CCCC)nc4c(N)nc5ccccc5c43)cc2)NC(=O)CNC(=O)C(CCC(=O)NCCCCCC(=O)NCc2ccc(Cn3c(CCCC)nc4c(N)nc5ccccc5c43)cc2)NC(=O)CCC(=O)N2Cc3ccccc3-c3nnn(CCCCCC(=O)NC(Cc4ccc(O)c(O)c4)C(=O)NC(Cc4ccc(O)c(O)c4)C(=O)NC(Cc4ccc(O)c(O)c4)C(=O)NC(Cc4ccc(O)c(O)c4)C(N)=O)c3-c3ccccc32)C(N)=O)cc1 (centres unmarked) [pTLR7/8_mod]
- levels of CD40 (BMDMs [3]): greatest increase
- levels of CD86 (BMDMs [3]): greatest increase
- amount of IL-6 (FIG. 6B) produced by dLN cells (cells from the dLNs): highest levels
- amount of IL-23 (FIG. 6A) produced by dLN cells (cells from the dLNs): highest levels
- amount of TNF-α (FIG. 6C) produced by dLN cells (cells from the dLNs): highest levels
- TNF-α concentration in supernatant (BMDMs [4]): smallest increase
- serum titers of anti-OVA antibodies (OVA): Highest
- NF-κB levels [5]: increased

Structure (SMILES): COc1cc(CNC(=O)CCCC/C=C/C(C)C)ccc1O [capsaicin]
- pro-inflammatory systemic IL-6 and TNF-α levels [2]: reduce
